HELM strings list units from the 5' end as sugar, base in round brackets, then linkage (d deoxyribose, r ribose, m 2'-O-methyl, p phosphodiester). Strings are as the collection lists them; they lack the last nucleoside at the 3' end of the tested compound. [moe] = 2'-O-(2-methoxyethyl) (MOE); [sp] = phosphorothioate linkage; [m5C] = 5-methylcytosine
biological target: GFAP; assay: mouse, dose not given; settings: ASO

In order of rising 3 h FOB score:
1. RNA1{[moe](T)[sp].[moe](G)p.[moe](G)p.[moe](T)p.[moe](G)p.d([m5C])[sp].d(T)[sp].d(T)[sp].d(T)[sp].d(T)[sp].d(G)[sp].d([m5C])[sp].d([m5C])[sp].d([m5C])[sp].d([m5C])[sp].[moe]([m5C])p.[moe](T)p.[moe](G)[sp].[moe](T)}$$$$ (last 3' nucleoside missing)  0 score 0-7
2. RNA1{[moe](T)[sp].[moe](G)p.[moe](G)p.[moe]([m5C])p.[moe](A)[sp].d(G)[sp].d(T)[sp].d(A)[sp].d(T)[sp].d(T)[sp].d(A)[sp].d([m5C])[sp].d([m5C])[sp].[moe](T)p.[moe]([m5C])p.[moe](T)[sp].[moe](A)}$$$$ (last 3' nucleoside missing)  0 score 0-7
3. RNA1{[moe](T)[sp].[moe](G)p.[moe](G)p.[moe](T)p.[moe](G)p.[moe]([m5C])p.d(T)[sp].d(T)[sp].d(T)[sp].d(T)[sp].d(G)[sp].d([m5C])[sp].d([m5C])[sp].d([m5C])[sp].d([m5C])[sp].d([m5C])[sp].[moe](T)p.[moe](G)[sp].[moe](T)}$$$$ (last 3' nucleoside missing)  1 score 0-7
4. RNA1{[moe](T)[sp].[moe](G)p.[moe](G)p.[moe](T)p.[moe]([m5C])p.d([m5C])[sp].d(T)[sp].d(A)[sp].d(A)[sp].d(A)[sp].d(T)[sp].d(A)[sp].d(T)[sp].d(T)[sp].d([m5C])[sp].[moe](T)p.[moe](A)p.[moe](G)[sp].[moe](T)}$$$$ (last 3' nucleoside missing)  1 score 0-7
5. RNA1{[moe](T)[sp].[moe](G)p.[moe](G)p.[moe](T)p.d(G)[sp].d([m5C])[sp].d(T)[sp].d(T)[sp].d(T)[sp].d(T)[sp].d(G)[sp].d([m5C])[sp].d([m5C])[sp].d([m5C])[sp].[moe]([m5C])p.[moe]([m5C])p.[moe](T)p.[moe](G)[sp].[moe](T)}$$$$ (last 3' nucleoside missing)  1 score 0-7
6. RNA1{[moe](T)[sp].[moe](G)p.[moe](G)p.[moe]([m5C])p.[moe](A)[sp].d(A)[sp].d([m5C])[sp].d(A)[sp].d(G)[sp].d(T)[sp].d(T)[sp].d(T)[sp].d([m5C])[sp].d([m5C])[sp].d(A)[sp].[moe](T)p.[moe](A)p.[moe](A)[sp].[moe]([m5C])}$$$$ (last 3' nucleoside missing)  1 score 0-7
7. RNA1{[moe](T)[sp].[moe](G)p.[moe](G)p.[moe]([m5C])p.[moe](A)[sp].d(G)[sp].d(T)[sp].d(A)[sp].d(T)[sp].d(T)[sp].d(A)[sp].d([m5C])[sp].d([m5C])[sp].d(T)[sp].d([m5C])[sp].[moe](T)p.[moe](A)p.[moe]([m5C])[sp].[moe](T)}$$$$ (last 3' nucleoside missing)  1 score 0-7
8. RNA1{[moe](T)[sp].[moe](G)p.[moe](A)p.[moe]([m5C])p.[moe](T)p.[moe](A)p.d(T)[sp].d([m5C])[sp].d(T)[sp].d(A)[sp].d(G)[sp].d(G)[sp].d(A)[sp].d(T)[sp].d(T)[sp].d(T)[sp].[moe](G)p.[moe](G)[sp].[moe]([m5C])}$$$$ (last 3' nucleoside missing)  2 score 0-7
9. RNA1{[moe](T)[sp].[moe](G)p.[moe](A)p.[moe]([m5C])p.[moe](T)p.d(A)[sp].d(T)[sp].d([m5C])[sp].d(T)[sp].d(A)[sp].d(G)[sp].d(G)[sp].d(A)[sp].d(T)[sp].d(T)[sp].[moe](T)p.[moe](G)p.[moe](G)[sp].[moe]([m5C])}$$$$ (last 3' nucleoside missing)  3 score 0-7
10. RNA1{[moe](T)[sp].[moe](G)p.[moe](A)p.[moe]([m5C])p.[moe]([m5C])[sp].d(T)[sp].d(G)[sp].d(T)[sp].d(G)[sp].d(A)[sp].d([m5C])[sp].d(T)[sp].d(A)[sp].d(T)[sp].d([m5C])[sp].[moe](T)p.[moe](A)p.[moe](G)[sp].[moe](G)}$$$$ (last 3' nucleoside missing)  5 score 0-7
